Measured values as given in DBAASP.
Converted amounts (≈) assume the structure as drawn.

What was measured:
Assay in all cases: ≥ marks a high value that may be exact or a test limit, other limits are often not marked, values filed in µg/mL are converted to µM
[1] = test system: Staphylococcus aureus NCTC 8325
[2] = test system: Bacillus subtilis KCTC 3068
[3] = test system: Escherichia coli KCTC 1682
[4] = test system: Pseudomonas aeruginosa KCTC 1637
[5] = test system: Salmonella typhimurium KCTC 1926
[6] = test system: Staphylococcus aureus KCTC 1621
[7] = test system: Staphylococcus epidermidis KCTC 1917
Candida albicans = test system: Candida albicans
Escherichia coli = test system: Escherichia coli
Staphylococcus aureus = test system: Staphylococcus aureus
[8] = test system: Escherichia coli ATCC 25922
Escherichia coli UB1005 = test system: Escherichia coli UB1005
[9] = test system: Pseudomonas aeruginosa ATCC 27853
[10] = test system: Salmonella enterica subsp. enterica serovar Typhimurium ATCC 14028
[11] = test system: Salmonella enterica subsp. enterica serovar Typhimurium C77-31
[12] = test system: Staphylococcus aureus ATCC 25923
[13] = test system: Staphylococcus aureus ATCC 29213
[14] = test system: Staphylococcus aureus ATCC 43300
[15] = test system: Staphylococcus epidermidis ATCC 12228
[16] = test system: Bacillus subtilis ATCC 6633
[17] = test system: Klebsiella pneumoniae ATCC 700603

| MIC [2] [µM] | MIC [3] [µM] | MIC [4] [µM] | MIC [5] [µM] | MIC [6] [µM] | MIC [7] [µM] | Structure (SMILES) | also measured |
| --- | --- | --- | --- | --- | --- | --- | --- |
|  |  |  |  |  |  | CC[C@H](C)[C@@H]1NC(=O)[C@H](C)NC(=O)[C@@H](NC(=O)[C@H](Cc2ccccc2)NC(=O)[C@@H](NC(=O)[C@H](CCCCN)NC(=O)[C@@H]2CCCN2C(=O)[C@H](CC(C)C)NC(=O)[C@H](Cc2ccccc2)NC(=O)[C@H](CCCCN)NC(=O)[C@H](C)NC(=O)[C@H](C)NC(=O)[C@@H](NC(=O)CNC(=O)[C@H](C)NC(=O)[C@@H](NC(=O)[C@H](Cc2ccccc2)NC(=O)[C@@H]2CCCN2C(=O)[C@H](CC(C)C)NC(=O)[C@@H](N)Cc2ccccc2)[C@@H](C)CC)C(C)C)[C@@H](C)CC)CSSC[C@@H](C(=O)O)NC(=O)[C@H](CCCCN)NC(=O)[C@H](CCCCN)NC(=O)[C@H](CO)NC1=O [FLPFIAGVAAKFLPKIFCAISKKC] | MIC [1]: 13 µM (≈ 33.9 µg/mL) |
| 4 (≈ 6.61 µg/mL) | 8 (≈ 13.2 µg/mL) | 8 (≈ 13.2 µg/mL) | 8 (≈ 13.2 µg/mL) | 8 (≈ 13.2 µg/mL) | 4 (≈ 6.61 µg/mL) | CC(C)C[C@H](NC(=O)[C@H](CC(C)C)NC(=O)[C@H](CCCCN)NC(=O)[C@H](CC(C)C)NC(=O)[C@H](CC(C)C)NC(=O)[C@H](CCCCN)NC(=O)[C@H](CCCCN)NC(=O)[C@H](CC(C)C)NC(=O)[C@H](CC(C)C)NC(=O)[C@H](CCCCN)NC(=O)[C@H](CCCCN)NC(=O)[C@H](Cc1c[nH]c2ccccc12)NC(=O)[C@@H](N)CCCCN)C(N)=O [KWKKLLKKLLKLL] |  |
|  |  |  |  |  |  | CC[C@H](C)[C@H](NC(=O)[C@@H](NC(=O)[C@@H]1CCCN1C(=O)[C@H](CC(C)C)NC(=O)[C@@H](NC(=O)[C@@H](N)CO)[C@@H](C)CC)[C@@H](C)O)C(=O)N[C@H](C(=O)N[C@@H](CO)C(=O)N[C@@H](Cc1ccccc1)C(=O)N[C@@H](CC(C)C)C(=O)N[C@H](C(=O)N[C@@H](CCCCN)C(=O)N[C@@H](Cc1ccccc1)C(=O)N[C@@H](CC(C)C)C(N)=O)[C@@H](C)O)C(C)C [SILPTIVSFLTKFL] | MIC [1]: 25 µM (≈ 39.4 µg/mL) |
| 7.08 (≈ 12.5 µg/mL) | 7.08 (≈ 12.5 µg/mL) | 3.54 (≈ 6.25 µg/mL) | 1.77 (≈ 3.13 µg/mL) | 3.54 (≈ 6.25 µg/mL) | 3.54 (≈ 6.25 µg/mL) | CC[C@H](C)[C@H](NC(=O)[C@H](CCCN=C(N)N)NC(=O)[C@H](CCCN=C(N)N)NC(=O)[C@H](CC(C)C)NC(=O)[C@@H](N)CCCN=C(N)N)C(=O)N[C@@H](Cc1c[nH]c2ccccc12)C(=O)N[C@@H](Cc1c[nH]c2ccccc12)C(=O)N[C@H](C(=O)N[C@@H](CCCN=C(N)N)C(=O)N[C@H](C(=O)N[C@@H](CCCN=C(N)N)C(=O)N[C@@H](CCCN=C(N)N)C(N)=O)C(C)C)[C@@H](C)CC [RLRRIWWIRVRR] |  |
|  |  |  |  |  |  | CC[C@H](C)[C@H](NC(=O)[C@H](CCCCN)NC(=O)[C@H](CS)NC(=O)[C@H](C)NC(=O)[C@@H](NC(=O)[C@H](Cc1ccccc1)NC(=O)[C@H](CCC(=O)O)NC(=O)[C@H](CC(C)C)NC(=O)[C@H](CCC(=O)O)NC(=O)[C@@H](NC(=O)[C@H](CCCCN)NC(=O)[C@H](CCC(=O)O)NC(=O)[C@H](CC(C)C)NC(=O)[C@H](CC(N)=O)NC(=O)[C@H](CCCCN)NC(=O)[C@H](CC(C)C)NC(=O)[C@@H](NC(=O)[C@H](CO)NC(=O)[C@H](CC(C)C)NC(=O)[C@H](CCSC)NC(=O)[C@@H](N)CO)C(C)C)C(C)C)C(C)C)C(=O)N[C@@H](CC(N)=O)C(=O)N[C@@H](CCCCN)C(=O)N[C@@H](CCC(N)=O)C(=O)N[C@@H](CS)C(=O)O [SMLSVLKNLEKVELEFVACKINKQC] | MIC (Candida albicans): > 200 µM; MIC (Escherichia coli): > 200 µM; MIC (Staphylococcus aureus): > 200 µM |
| 7.82 (≈ 12.5 µg/mL) | 7.82 (≈ 12.5 µg/mL) | 3.91 (≈ 6.25 µg/mL) | 0.976 (≈ 1.56 µg/mL) | 3.91 (≈ 6.25 µg/mL) | 3.91 (≈ 6.25 µg/mL) | CC[C@H](C)[C@H](NC(=O)[C@H](CCCCN)NC(=O)[C@H](CCCCN)NC(=O)[C@H](CC(C)C)NC(=O)[C@@H](N)CCCCN)C(=O)N[C@@H](Cc1c[nH]c2ccccc12)C(=O)N[C@@H](Cc1c[nH]c2ccccc12)C(=O)N[C@H](C(=O)N[C@@H](CCCCN)C(=O)N[C@H](C(=O)N[C@@H](CCCCN)C(=O)N[C@@H](CCCCN)C(N)=O)C(C)C)[C@@H](C)CC [KLKKIWWIKVKK] |  |
|  |  |  |  |  |  | CC[C@H](C)[C@H](N)C(=O)N[C@@H](CCCN=C(N)N)C(=O)N1CCC[C@H]1C(=O)N[C@H](C(=O)N[C@@H](CCCN=C(N)N)C(=O)N1CCC[C@H]1C(=O)O)[C@@H](C)CC [IRPIRP] | MIC [8]: > 128 µM; MIC (Escherichia coli UB1005): ≥ 128 µM; MIC [9]: > 128 µM; MIC [10]: > 128 µM; MIC [11]: ≥ 128 µM; MIC [12]: > 128 µM; MIC [13]: > 128 µM; MIC [14]: > 128 µM; MIC [15]: > 128 µM |
| 2 (≈ 3.85 µg/mL) | 8 (≈ 15.4 µg/mL) | 16 (≈ 30.8 µg/mL) | 4 (≈ 7.69 µg/mL) | 2 (≈ 3.85 µg/mL) | 8 (≈ 15.4 µg/mL) | CC[C@H](C)[C@H](NC(=O)[C@H](CCCN=C(N)N)NC(=O)[C@H](CCCN=C(N)N)NC(=O)[C@@H](NC(=O)[C@@H](NC(=O)[C@H](CCCN=C(N)N)NC(=O)[C@H](CCCCN)NC(=O)[C@@H](N)Cc1c[nH]c2ccccc12)[C@@H](C)CC)C(C)C)C(=O)N[C@@H](Cc1c[nH]c2ccccc12)C(=O)N[C@@H](CCCN=C(N)N)C(=O)N[C@@H](Cc1c[nH]c2ccccc12)C(=O)N[C@@H](CC(C)C)C(=O)N[C@@H](CCCN=C(N)N)C(N)=O [WKRIVRRIWRWLR] |  |
|  |  |  |  |  |  | CC(=O)N[C@@H](Cc1ccccc1)C(=O)N[C@@H](CCCCN)C(=O)N[C@@H](CC(C)C)C(=O)N[C@@H](CCCCN)C(=O)N[C@@H](CC(C)C)C(=O)N[C@@H](CCCCN)C(=O)N[C@@H](Cc1ccccc1)C(=O)N[C@@H](CO)C(=O)N[C@@H](CC(N)=O)C(=O)N[C@@H](CCCCN)C(=O)N[C@@H](CC(C)C)C(=O)N[C@@H](CCCCN)C(=O)N[C@@H](Cc1c[nH]c2ccccc12)C(=O)N[C@@H](CCCCN)C(=O)N[C@@H](Cc1c[nH]c2ccccc12)C(N)=O [FKLKLKFSNKLKWKW] | MIC [16]: 3.2 µM (≈ 6.51 µg/mL); MIC [8]: 12.5 µM (≈ 25.4 µg/mL); MIC [17]: 25 µM (≈ 50.9 µg/mL); MIC [9]: 12.5 µM (≈ 25.4 µg/mL); MIC [12]: 25 µM (≈ 50.9 µg/mL); MIC [15]: 12.5 µM (≈ 25.4 µg/mL) |
| 4 (≈ 9.5 µg/mL) | 8 (≈ 19 µg/mL) | 16 (≈ 38 µg/mL) | 8 (≈ 19 µg/mL) | 4 (≈ 9.5 µg/mL) | 4 (≈ 9.5 µg/mL) | CC[C@H](C)[C@H](N)C(=O)NCC(=O)N[C@@H](CCCCN)C(=O)N[C@@H](CCC(=O)O)C(=O)N[C@@H](Cc1ccccc1)C(=O)N[C@@H](CCCCN)C(=O)N[C@@H](CCCN=C(N)N)C(=O)N[C@H](C(=O)N[C@H](C(=O)N[C@@H](CCC(N)=O)C(=O)N[C@@H](CCCN=C(N)N)C(=O)N[C@H](C(=O)N[C@@H](CCCCN)C(=O)N[C@@H](CC(=O)O)C(=O)N[C@@H](Cc1ccccc1)C(=O)N[C@@H](CC(C)C)C(=O)N[C@@H](CCCN=C(N)N)C(=O)N[C@@H](CC(N)=O)C(=O)N[C@@H](CC(C)C)C(=O)O)[C@@H](C)CC)C(C)C)[C@@H](C)CC [IGKEFKRIVQRIKDFLRNL] |  |
| 2 (≈ 5 µg/mL) | 4 (≈ 9.99 µg/mL) | 4 (≈ 9.99 µg/mL) | 2 (≈ 5 µg/mL) | 4 (≈ 9.99 µg/mL) | 8 (≈ 20 µg/mL) | CC(C)C[C@H](NC(=O)[C@H](CCCCN)NC(=O)[C@H](CCCCN)NC(=O)[C@H](Cc1c[nH]c2ccccc12)NC(=O)[C@H](CC(C)C)NC(=O)[C@H](CCCCN)NC(=O)[C@H](CCCCN)NC(=O)[C@H](Cc1c[nH]c2ccccc12)NC(=O)[C@H](CCCCN)NC(=O)[C@H](CCCCN)NC(=O)[C@H](CCCN=C(N)N)NC(=O)[C@H](Cc1c[nH]c2ccccc12)NC(=O)[C@H](CCCN=C(N)N)NC(=O)[C@H](CCCCN)NC(=O)[C@H](Cc1c[nH]c2ccccc12)NC(=O)[C@H](CCCN=C(N)N)NC(=O)CN)C(=O)N[C@@H](CO)C(N)=O [GRWKRWRKKWKKLWKKLS] |  |
| 4 (≈ 8.82 µg/mL) | 4 (≈ 8.82 µg/mL) | 4 (≈ 8.82 µg/mL) | 2 (≈ 4.41 µg/mL) | 4 (≈ 8.82 µg/mL) | 8 (≈ 17.6 µg/mL) | CC[C@H](C)[C@H](NC(=O)[C@H](CCCN=C(N)N)NC(=O)CN)C(=O)N[C@@H](CCCCN)C(=O)N[C@@H](CCCN=C(N)N)C(=O)N[C@H](C(=O)N[C@@H](CCCN=C(N)N)C(=O)N[C@@H](CCCCN)C(=O)N[C@@H](CCCCN)C(=O)N[C@H](C(=O)N[C@@H](CCCCN)C(=O)N[C@@H](CCCCN)C(=O)N[C@@H](CC(C)C)C(=O)N[C@H](C(=O)N[C@@H](CCCCN)C(=O)N[C@@H](CCCCN)C(=O)N[C@@H](CC(C)C)C(=O)N[C@@H](CO)C(N)=O)[C@@H](C)CC)[C@@H](C)CC)[C@@H](C)CC [GRIKRIRKKIKKLIKKLS] |  |
